Measurements taken from ChEMBL document CHEMBL2150974 (J Med Chem, 2012).
The source made the active and inactive calls. No cut-off for these calls is given here.

Legend:
[1] = target: Aurora kinase B (Homo sapiens) (UniProt Q96GD4); assay: Inhibition of AuroraB at 10 uM
[2] = target: Tyrosine-protein kinase receptor UFO (Homo sapiens) (UniProt P30530); assay: Inhibition of AXL at 10 uM
[3] = target: BDNF/NT-3 growth factors receptor (Homo sapiens) (UniProt Q16620); assay: Inhibition of TRKB at 10 uM
Sequence of BDNF/NT-3 growth factors receptor (Homo sapiens) (Q16620 32-822 limits assumed): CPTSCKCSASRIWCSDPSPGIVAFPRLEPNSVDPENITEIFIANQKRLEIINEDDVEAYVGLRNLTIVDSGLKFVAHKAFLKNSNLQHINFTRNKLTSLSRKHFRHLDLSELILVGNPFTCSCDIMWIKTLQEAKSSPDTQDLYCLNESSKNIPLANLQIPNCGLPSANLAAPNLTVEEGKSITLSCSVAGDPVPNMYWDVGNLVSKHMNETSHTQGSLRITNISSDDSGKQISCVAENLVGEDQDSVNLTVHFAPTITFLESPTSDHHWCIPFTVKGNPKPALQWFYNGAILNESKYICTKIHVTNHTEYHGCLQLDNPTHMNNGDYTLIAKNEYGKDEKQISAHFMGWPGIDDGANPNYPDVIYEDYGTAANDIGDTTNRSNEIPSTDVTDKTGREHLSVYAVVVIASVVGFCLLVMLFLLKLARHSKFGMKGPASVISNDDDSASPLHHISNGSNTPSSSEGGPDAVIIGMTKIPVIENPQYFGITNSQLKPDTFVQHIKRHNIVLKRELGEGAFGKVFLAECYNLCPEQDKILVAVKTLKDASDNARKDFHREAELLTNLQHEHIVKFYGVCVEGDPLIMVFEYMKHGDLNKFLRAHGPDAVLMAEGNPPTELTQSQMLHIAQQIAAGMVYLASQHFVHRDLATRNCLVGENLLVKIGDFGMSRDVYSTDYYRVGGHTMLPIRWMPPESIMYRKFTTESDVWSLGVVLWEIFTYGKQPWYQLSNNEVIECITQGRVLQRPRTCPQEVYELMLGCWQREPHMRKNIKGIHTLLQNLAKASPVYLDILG

[4] = target: Insulin-like growth factor 1 receptor (Homo sapiens) (UniProt P08069); assay: Inhibition of IGF1R at 10 uM
Sequence of Insulin-like growth factor 1 receptor (Homo sapiens) (P08069 31-736 limits assumed): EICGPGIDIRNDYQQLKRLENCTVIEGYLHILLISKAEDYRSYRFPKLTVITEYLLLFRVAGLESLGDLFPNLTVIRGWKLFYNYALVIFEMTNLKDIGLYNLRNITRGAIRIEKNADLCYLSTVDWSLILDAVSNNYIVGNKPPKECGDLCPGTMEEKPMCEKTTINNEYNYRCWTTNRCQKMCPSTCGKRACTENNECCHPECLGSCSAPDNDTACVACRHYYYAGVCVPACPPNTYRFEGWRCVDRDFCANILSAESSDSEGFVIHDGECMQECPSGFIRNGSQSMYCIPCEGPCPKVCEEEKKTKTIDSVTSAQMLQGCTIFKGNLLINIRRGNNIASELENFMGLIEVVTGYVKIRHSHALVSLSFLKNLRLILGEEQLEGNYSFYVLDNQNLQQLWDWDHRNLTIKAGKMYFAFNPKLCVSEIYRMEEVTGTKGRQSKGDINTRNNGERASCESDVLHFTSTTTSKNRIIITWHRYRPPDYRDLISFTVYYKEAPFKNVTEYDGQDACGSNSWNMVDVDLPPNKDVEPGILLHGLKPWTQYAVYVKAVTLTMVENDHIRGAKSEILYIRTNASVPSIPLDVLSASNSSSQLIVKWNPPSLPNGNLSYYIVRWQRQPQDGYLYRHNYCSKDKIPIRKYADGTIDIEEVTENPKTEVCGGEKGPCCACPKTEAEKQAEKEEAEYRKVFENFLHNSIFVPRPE
Sequence of Insulin-like growth factor 1 receptor (Homo sapiens) (P08069 741-1367 limits assumed): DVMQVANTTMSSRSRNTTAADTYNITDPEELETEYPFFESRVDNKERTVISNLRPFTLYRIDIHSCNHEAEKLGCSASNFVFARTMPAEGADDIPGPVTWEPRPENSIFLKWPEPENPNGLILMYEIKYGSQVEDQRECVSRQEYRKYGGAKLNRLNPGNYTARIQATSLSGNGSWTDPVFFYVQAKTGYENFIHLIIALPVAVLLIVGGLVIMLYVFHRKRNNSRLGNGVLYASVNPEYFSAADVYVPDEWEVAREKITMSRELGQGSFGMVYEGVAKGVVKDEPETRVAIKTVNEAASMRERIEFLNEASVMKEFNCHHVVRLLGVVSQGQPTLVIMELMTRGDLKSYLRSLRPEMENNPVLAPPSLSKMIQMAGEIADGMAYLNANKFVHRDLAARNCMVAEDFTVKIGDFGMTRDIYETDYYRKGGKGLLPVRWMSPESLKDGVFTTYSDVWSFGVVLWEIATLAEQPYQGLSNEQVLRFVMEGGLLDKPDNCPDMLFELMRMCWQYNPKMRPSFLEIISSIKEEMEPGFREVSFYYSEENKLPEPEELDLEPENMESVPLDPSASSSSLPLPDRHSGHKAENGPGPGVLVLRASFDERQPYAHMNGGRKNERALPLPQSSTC

[5] = system: Serine/threonine-protein kinase B-raf (Homo sapiens), P15056 [V600E]; assay: Inhibition of BRAF V600E mutant at 10 uM
Sequence of Serine/threonine-protein kinase B-raf (Homo sapiens), P15056 [V600E] (P15056 whole entry V600E): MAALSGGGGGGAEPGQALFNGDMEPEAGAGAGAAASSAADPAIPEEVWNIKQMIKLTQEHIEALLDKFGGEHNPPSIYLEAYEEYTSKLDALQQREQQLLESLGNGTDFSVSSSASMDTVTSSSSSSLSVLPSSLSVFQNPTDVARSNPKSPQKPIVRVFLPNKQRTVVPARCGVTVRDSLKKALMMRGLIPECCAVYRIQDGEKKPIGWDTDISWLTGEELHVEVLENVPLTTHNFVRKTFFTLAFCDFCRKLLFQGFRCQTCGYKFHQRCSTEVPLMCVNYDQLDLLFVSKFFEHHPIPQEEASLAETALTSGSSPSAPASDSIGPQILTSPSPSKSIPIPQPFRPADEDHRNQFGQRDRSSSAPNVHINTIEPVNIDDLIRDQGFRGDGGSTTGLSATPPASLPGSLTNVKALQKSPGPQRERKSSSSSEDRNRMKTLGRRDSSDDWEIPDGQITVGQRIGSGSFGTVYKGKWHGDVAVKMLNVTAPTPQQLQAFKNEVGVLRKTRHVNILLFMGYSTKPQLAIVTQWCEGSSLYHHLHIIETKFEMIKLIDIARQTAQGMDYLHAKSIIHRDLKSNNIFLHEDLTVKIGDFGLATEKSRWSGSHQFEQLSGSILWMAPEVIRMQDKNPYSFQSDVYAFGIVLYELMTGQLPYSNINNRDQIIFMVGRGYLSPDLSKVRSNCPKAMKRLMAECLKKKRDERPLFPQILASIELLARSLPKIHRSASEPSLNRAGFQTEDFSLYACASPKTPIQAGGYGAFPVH

[6] = target: Serine/threonine-protein kinase PLK1 (Homo sapiens) (UniProt P53350); assay: Inhibition of PLK1 at 10 uM
[7] = target: Proto-oncogene tyrosine-protein kinase Src (Homo sapiens) (UniProt P12931); assay: Inhibition of SRC at 10 uM
Sequence of Proto-oncogene tyrosine-protein kinase Src (Homo sapiens) (P12931 2-536 limits assumed): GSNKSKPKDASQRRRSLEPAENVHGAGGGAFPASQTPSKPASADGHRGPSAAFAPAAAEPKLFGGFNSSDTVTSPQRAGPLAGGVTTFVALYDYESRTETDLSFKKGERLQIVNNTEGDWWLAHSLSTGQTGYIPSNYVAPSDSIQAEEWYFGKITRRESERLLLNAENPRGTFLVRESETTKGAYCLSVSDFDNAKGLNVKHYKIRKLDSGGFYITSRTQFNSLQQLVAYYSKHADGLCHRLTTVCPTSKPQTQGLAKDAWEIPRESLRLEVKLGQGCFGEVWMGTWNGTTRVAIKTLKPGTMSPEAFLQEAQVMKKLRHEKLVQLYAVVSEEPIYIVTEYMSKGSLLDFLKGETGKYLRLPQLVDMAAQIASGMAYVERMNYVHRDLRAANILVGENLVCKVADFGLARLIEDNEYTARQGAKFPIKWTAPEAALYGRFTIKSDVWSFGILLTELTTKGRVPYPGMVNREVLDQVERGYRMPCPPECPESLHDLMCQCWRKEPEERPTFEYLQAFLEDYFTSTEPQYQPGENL

[8] = target: Vascular endothelial growth factor receptor 2 (Homo sapiens) (UniProt P35968); assay: Inhibition of VEGFR2 at 10 uM
[9] = target: Focal adhesion kinase 1 (Homo sapiens) (UniProt Q05397); assay: Inhibition of FAK at 10 uM
[10] = target: T1, Mitogen-activated protein kinase 14 (Homo sapiens, UniProt Q16539); assay: Inhibition of p38alpha by immunosorbent based kinase assay
T1 sequence (Q16539 whole entry): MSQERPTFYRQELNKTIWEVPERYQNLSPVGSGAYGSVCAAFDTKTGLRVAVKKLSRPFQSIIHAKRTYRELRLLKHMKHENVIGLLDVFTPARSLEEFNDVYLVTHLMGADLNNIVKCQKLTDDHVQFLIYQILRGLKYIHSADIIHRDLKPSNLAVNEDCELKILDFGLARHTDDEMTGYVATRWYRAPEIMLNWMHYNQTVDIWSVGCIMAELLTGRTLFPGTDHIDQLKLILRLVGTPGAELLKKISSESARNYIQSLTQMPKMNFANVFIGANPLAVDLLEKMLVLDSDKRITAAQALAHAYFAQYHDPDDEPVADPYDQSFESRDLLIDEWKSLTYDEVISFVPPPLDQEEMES

[11] = target: RAC-alpha serine/threonine-protein kinase (Homo sapiens) (UniProt P31749); assay: Inhibition of AKT1 at 10 uM
[12] = target: Serine/threonine-protein kinase N1 (Homo sapiens) (UniProt Q16512); assay: Inhibition of PRK1 at 10 uM
[13] = target: T2, Serine/threonine-protein kinase PLK4 (Homo sapiens) (UniProt O00444); assay: Inhibition of SAK at 10 uM
T2 sequence (whole entry): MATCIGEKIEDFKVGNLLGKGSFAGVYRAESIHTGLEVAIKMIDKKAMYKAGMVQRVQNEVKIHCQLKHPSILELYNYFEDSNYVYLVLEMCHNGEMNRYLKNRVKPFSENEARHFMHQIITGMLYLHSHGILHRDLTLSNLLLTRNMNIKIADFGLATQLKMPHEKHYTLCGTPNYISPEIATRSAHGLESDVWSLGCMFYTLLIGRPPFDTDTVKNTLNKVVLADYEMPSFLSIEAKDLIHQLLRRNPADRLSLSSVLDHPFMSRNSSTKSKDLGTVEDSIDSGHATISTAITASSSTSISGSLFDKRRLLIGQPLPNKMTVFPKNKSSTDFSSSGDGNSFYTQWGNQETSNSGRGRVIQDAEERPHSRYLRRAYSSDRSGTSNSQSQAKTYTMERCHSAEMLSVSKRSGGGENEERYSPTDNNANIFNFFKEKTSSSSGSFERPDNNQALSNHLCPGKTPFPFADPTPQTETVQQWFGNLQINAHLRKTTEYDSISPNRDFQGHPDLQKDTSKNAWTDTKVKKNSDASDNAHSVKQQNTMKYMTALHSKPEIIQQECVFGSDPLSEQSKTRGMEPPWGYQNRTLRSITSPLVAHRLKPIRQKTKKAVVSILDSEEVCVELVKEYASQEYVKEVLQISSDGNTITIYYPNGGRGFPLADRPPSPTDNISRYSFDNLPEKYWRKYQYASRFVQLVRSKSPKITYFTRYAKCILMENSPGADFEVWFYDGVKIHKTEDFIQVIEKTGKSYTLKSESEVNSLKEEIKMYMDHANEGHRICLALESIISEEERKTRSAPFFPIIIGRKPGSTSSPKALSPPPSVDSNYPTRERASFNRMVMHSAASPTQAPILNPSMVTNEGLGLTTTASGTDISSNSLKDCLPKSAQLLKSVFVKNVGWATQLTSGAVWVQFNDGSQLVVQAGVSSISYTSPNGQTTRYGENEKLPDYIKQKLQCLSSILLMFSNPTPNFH

[14] = target: T1, Mitogen-activated protein kinase 14; assay: Inhibition of p38alpha-dependent TNFalpha production in human whole blood
[15] = target: Hepatocyte growth factor receptor (Homo sapiens) (UniProt P08581); assay: Inhibition of MET at 10 uM
[16] = target: Casein kinase II subunit alpha (Homo sapiens) (UniProt P68400); assay: Inhibition of CK2alpha1 at 10 uM
[17] = target: T3, NUAK family SNF1-like kinase 1 (Homo sapiens) (UniProt O60285); assay: Inhibition of ARK5 at 10 uM
T3 sequence (whole entry): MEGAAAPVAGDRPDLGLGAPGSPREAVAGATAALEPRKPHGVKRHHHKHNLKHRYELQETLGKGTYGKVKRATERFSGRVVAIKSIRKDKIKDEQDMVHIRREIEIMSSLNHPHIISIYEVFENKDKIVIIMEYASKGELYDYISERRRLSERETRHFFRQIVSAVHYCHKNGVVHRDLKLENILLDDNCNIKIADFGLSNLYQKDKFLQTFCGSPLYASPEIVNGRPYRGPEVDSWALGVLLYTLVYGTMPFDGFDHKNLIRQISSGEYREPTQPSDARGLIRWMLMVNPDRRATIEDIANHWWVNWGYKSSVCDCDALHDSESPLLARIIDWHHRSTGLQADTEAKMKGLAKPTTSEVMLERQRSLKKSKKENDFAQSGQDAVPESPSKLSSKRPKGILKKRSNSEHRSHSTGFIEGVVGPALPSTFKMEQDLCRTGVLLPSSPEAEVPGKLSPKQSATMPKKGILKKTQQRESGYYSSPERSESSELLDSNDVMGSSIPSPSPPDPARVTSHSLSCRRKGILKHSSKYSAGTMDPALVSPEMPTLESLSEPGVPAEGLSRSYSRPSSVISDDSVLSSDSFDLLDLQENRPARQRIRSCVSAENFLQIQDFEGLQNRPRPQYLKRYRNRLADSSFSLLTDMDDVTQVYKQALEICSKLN

[18] = target: Insulin receptor (Homo sapiens) (UniProt P06213); assay: Inhibition of INSR at 10 uM

Sequence of Tyrosine-protein kinase receptor UFO (Homo sapiens) (P30530 whole entry): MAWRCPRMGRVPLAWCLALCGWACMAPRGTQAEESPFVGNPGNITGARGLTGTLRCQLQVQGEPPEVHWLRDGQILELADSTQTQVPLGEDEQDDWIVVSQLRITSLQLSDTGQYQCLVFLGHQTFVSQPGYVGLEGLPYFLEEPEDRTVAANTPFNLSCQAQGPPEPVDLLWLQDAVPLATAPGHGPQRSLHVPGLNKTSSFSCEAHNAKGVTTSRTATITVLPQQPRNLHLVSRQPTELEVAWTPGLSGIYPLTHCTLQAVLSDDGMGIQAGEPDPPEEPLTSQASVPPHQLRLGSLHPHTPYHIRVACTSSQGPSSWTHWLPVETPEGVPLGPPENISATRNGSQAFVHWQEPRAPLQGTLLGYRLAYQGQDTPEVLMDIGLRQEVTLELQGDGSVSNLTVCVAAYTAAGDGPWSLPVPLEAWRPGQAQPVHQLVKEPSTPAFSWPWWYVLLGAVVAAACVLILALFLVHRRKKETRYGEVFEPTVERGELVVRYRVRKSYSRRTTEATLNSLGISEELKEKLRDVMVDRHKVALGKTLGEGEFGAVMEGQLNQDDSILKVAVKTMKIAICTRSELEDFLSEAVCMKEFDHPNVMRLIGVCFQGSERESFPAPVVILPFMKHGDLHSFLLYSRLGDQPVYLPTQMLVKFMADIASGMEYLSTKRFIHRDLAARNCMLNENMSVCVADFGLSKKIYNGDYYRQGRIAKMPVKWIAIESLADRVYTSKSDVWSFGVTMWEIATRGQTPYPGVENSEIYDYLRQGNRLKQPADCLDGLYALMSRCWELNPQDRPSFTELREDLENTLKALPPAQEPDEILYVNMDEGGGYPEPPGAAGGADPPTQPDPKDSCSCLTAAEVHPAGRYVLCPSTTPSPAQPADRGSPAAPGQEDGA
Sequence of Aurora kinase B (Homo sapiens) (Q96GD4 whole entry): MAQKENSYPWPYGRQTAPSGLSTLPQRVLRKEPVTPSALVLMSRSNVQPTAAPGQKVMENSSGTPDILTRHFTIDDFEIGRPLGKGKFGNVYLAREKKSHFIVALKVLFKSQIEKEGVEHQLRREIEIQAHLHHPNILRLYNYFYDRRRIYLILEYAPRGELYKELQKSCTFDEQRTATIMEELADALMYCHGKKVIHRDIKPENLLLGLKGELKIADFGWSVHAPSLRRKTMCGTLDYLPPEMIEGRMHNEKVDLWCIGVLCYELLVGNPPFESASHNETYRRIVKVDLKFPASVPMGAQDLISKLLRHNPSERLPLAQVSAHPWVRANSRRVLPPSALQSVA

Row | Structure (SMILES) | inhibition [1] | inhibition [2] | inhibition [3] | inhibition [4] | inhibition [5] | inhibition [6] | inhibition [7] | inhibition [8] | inhibition [9] | IC50 [10] [nM] | inhibition [11] | inhibition [12] | inhibition [13] | IC50 [14] [µM] | inhibition [15] | inhibition [16] | inhibition [17] | inhibition [18]
1 | CC1(C)OC[C@H](COc2ccc3c(c2)C(=O)c2ccc(Nc4ccccc4N)cc2CC3)O1 | inactive | inactive | inactive | inactive | inactive | inactive | inactive | inactive | inactive | 30 | inactive | inactive | inactive | 0.19 | inactive | inactive | inactive | inactive
2 | O=C1c2ccc(Nc3ccc(F)cc3F)cc2CCc2ccc(OC3CCOCC3)cc21 | inactive | inactive | inactive | inactive | inactive | inactive | inactive | inactive | inactive | 60 | inactive | inactive | inactive | 0.53 | inactive | inactive | inactive | inactive
3 | O=C1c2ccc(Nc3ccc(F)cc3F)cc2CCc2ccc(OCCCO)cc21 | inactive | inactive | inactive | inactive | inactive | inactive | inactive | inactive | inactive | 8 | inactive | inactive | inactive | 0.19 | inactive | inactive | inactive | inactive
4 | CC1(C)OC[C@H](COc2cccc3c2CCc2cc(Nc4ccccc4N)ccc2C3=O)O1 | inactive | inactive | inactive | inactive | inactive | inactive | inactive | inactive | inactive | 1040 | inactive | inactive | inactive | 158 | inactive | inactive | inactive | inactive
5 | COc1ccc2c(c1)C(=O)c1ccc(Nc3cc(F)cc(F)c3F)cc1CC2 | inactive | inactive | inactive | inactive | inactive | inactive | inactive | inactive | inactive | 50 | inactive | inactive | inactive | 4.3 | inactive | inactive | inactive | inactive
6 | CC1(C)OC[C@@H](COc2ccc3c(c2)CCc2cc(Nc4ccc(F)cc4F)ccc2C3=O)O1 | inactive | inactive | inactive | inactive | inactive | inactive | inactive | inactive | inactive | 360 | inactive | inactive | inactive | 123 | inactive | inactive | inactive | inactive
7 | O=C1c2ccc(Nc3ccc(F)cc3F)cc2CCc2cc(OC[C@H](O)CO)ccc21 | inactive | inactive | inactive | inactive | inactive | inactive | inactive | inactive | inactive | 30 | inactive | inactive | inactive | 10.4 | inactive | inactive | inactive | inactive
8 | CC1(C)OC[C@@H](CCOc2ccc3c(c2)C(=O)c2ccc(Nc4ccc(F)cc4F)cc2CC3)O1 | inactive | inactive | inactive | inactive | inactive | inactive | inactive | inactive | inactive | 10 | inactive | inactive | inactive | 0.32 | inactive | inactive | inactive | inactive
9 | COc1cccc2c1CCc1cc(Nc3ccc(F)cc3F)ccc1C2=O | inactive | inactive | inactive | inactive | inactive | inactive | inactive | inactive | inactive | 80 | inactive | inactive | inactive | 78.7 | inactive | inactive | inactive | inactive
